Test results reported in publication PMC4257840 (Journal of Medicinal Chemistry, 2014).

Experiments:
[1] = biological target: human recombinant procathepsin K (activated) (Homo sapiens, UniProt P43235); assay: Protease counter-screening: Cathepsin K; assay type: biochemical
Description: (§1) Appendix 7. Protease Counter -Screening
(§2) Protease counter-screeni ng was performed using the methods described below. Initial screening was conducted in duplicate using a single test substance concentration of 10 µ M .
(§3) Additional assays were conducted in replicate for selected pairin gs of test s ubstance and enz yme in order to enable the determination of IC50 values using conventional procedures.
(§4) Determination of K i was made using the Batch K i program (Biokin Ltd, Pullman, WA) to derive values from the Morrison equation: […]
Where [E ] is the active enz yme concentration, Kiapp is the apparent inhibition const ant, v 0 is the control velocit y in the absence of inhibitors, vb is the background velocity, v is the initial reaction velocit y in the presence of inhibitor, and I is the inhibitor concentration.Thence:
Where [S ] is the substrate concentration and KM is the Michealis constant.
Caspase 1: Activity against human recombinant caspase 1 expressed in E. coli was tested using Ac-YVAD- AMC as the substrate. […]
The amount of MCA-P LG formed was measured spectrofluorimetricall y at 340 nm/400 nm. […]
AMC formation was read at 360 nm/465 nm.
Cathepsin L2: Human recombinant cathepsin L2 expressed in NS0 cells was used as the enzyme source. […] Form ation of AMC was measured at 360 […]
The amount of AMC formed was read spectrofluorimetricall y at 360 nm/465 nm. […]

[2] = biological target: T1, Human recombinant ADAM-17 (Homo sapiens, UniProt P78536); assay: Protease counter-screening: ADAM-17/TACE; assay type: biochemical
T1 construct: host or cells: Sf21 insect cells
Description: as §1, §2, §3, §4
MMP-9: Human recombinant MMP-9 proenz yme ex pressed in mammalian cells was activated with APMA for 60 min at 37 °C. […] The amount of MCA-P LG formed was read spectrofluorimetricall y at 340 nm/400 nm.
ADAM-17/TACE: Human recombinant ADAM-17 expressed in Sf21 insect cells was used as enz yme sour ce. […] T he amount of MCA-P LAQA formed w as read spectro fluorimetricall y at 340 nm/400 nm.
Angiotensin converting enzyme: Test compound or vehicle was pre- incubated in modified HEPES buffer pH 7.5 for 15 min at 25 °C with 31 mU/mL angiotensin converting enz yme from rabbit lung. […] The amount of substrate remaining was read spectrophotometricall y at 340 nm and used to deri ve the extent of reaction and its inhibition. […]

human recombinant procathepsin K (activated), sequence (P43235 115-329): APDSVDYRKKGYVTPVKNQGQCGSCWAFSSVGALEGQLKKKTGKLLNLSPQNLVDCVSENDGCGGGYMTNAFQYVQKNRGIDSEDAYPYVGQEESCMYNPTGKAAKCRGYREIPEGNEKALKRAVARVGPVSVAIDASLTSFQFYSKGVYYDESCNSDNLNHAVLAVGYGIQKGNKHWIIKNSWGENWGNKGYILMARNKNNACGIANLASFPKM
T1 sequence (P78536 215-824): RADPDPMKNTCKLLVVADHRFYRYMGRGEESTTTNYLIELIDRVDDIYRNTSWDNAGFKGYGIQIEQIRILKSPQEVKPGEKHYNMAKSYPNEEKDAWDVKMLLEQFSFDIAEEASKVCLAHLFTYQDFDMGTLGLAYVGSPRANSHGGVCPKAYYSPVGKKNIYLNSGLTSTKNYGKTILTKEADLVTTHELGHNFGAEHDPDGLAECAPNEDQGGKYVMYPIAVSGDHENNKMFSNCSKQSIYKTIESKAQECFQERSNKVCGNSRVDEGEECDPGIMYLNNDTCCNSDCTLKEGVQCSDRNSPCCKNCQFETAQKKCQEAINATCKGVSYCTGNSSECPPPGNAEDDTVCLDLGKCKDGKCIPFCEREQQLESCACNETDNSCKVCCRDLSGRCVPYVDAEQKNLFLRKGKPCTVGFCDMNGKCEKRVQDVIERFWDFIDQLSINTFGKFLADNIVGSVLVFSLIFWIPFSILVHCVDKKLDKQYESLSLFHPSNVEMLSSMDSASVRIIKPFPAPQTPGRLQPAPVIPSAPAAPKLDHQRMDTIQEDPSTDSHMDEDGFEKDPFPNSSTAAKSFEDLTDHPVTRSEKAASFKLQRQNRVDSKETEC

In the case of `CC(C)[C@H](NC(=O)[C@H](C)NC(=O)[C@@H](NC(=O)c1ccccc1)C(C)(C)C)C(=O)C(=O)NCc1ccccc1` [Compound 38, N-{(S)-1-[(S)-1-((S)-1-Benzylaminooxalyl-2-methyl-propylcarbamoyl)-ethylcarbamoyl]-2,2-dimethyl-propyl}-benzamide], the IC50 [1] is reported as 2920 nM and the inhibition at 10 µM [2] is reported as 0%.
